Measured values taken from patent US4810702A, “Antibacterial agent for mammal use comprising cephalosporin derivatives as an effective ingredient” (Meiji Seika Kaisha, Ltd., priority 1986, dated 1989).
In brackets after ≈: the same amount, converted by molar mass. Structures can show the parent of a compound that is named as a salt. Where two headings read alike, the source gives them in different places.

Tests used:
[1] = tested on: Bacillus subtilis ATCC6633; test: Minimum growth inhibitory concentration, Test Example 1; type: cell-based
Procedure: (§1) The minimum growth inhibitory concentration (MIC) against various bacteria was measured in a bacterial count of 10^6 CFU/ml using medium SDA (NISSUI) in accordance with the Japan Chemotherapy Association.

[2] = tested on: Citrobacter freundii GN346/16-10; test: as above; type: cell-based; details: GN346, read-out: Minimum Growth Inhibitory Concentration MIC
Procedure: as §1

[3] = tested on: Citrobacter freundii GN346/16; test: as above; type: cell-based
Procedure: as §1

[4] = tested on: Citrobacter freundii GN346; test: as above; type: cell-based
Procedure: as §1

[5] = tested on: Escherichia coli 255/S-1; test: as above; type: cell-based; details: 255/S1, 10^6 CFU/ml, medium SDA
Procedure: as §1

[6] = tested on: Escherichia coli 255; test: as above; type: cell-based; details: 10^6 CFU/ml, medium SDA
Procedure: as §1

[7] = tested on: Escherichia coli W3630 RGN238; test: as above; type: cell-based; details: W3630RGN238, read-out: Minimum Growth Inhibitory Concentration MIC
Procedure: as §1

[8] = tested on: Escherichia coli W3630 RGN823; test: as above; type: cell-based; details: W3630RGN823, read-out: Minimum Growth Inhibitory Concentration MIC
Procedure: as §1

[9] = tested on: Pseudomonas aeruginosa IAM-1007; test: as above; type: cell-based
Procedure: as §1

[10] = tested on: Pseudomonas aeruginosa M-0148; test: as above; type: cell-based
Procedure: as §1

[11] = tested on: Pseudomonas aeruginosa Ml Rms139; test: as above; type: cell-based; details: MLRMS139, read-out: Minimum Growth Inhibitory Concentration MIC
Procedure: as §1

[12] = tested on: Staphylococcus aureus Smith (I); test: as above; type: cell-based; details: read-out: Minimum Growth Inhibitory Concentration MIC
Procedure: as §1

[13] = tested on: Staphylococcus epidermidis ATCC 14990; test: as above; type: cell-based
Procedure: as §1

[14] = tested on: Escherichia coli GN206; test: Minimum growth inhibitory concentration; type: cell-based
Procedure: as §1

[15] = tested on: Escherichia coli No. 29; test: MIC of the infecting strain, Table 2; type: cell-based
Procedure: as §1

[16] = tested on: Klebsiella pneumoniae PCI 602; test: MIC of the infecting strain, Table 2; type: cell-based; details: PCI602
Procedure: as §1

[17] = tested on: Pseudomonas aeruginosa GN10362; test: MIC of the infecting strain, Table 2; type: cell-based
Procedure: as §1

[18] = tested on: Escherichia coli GN206; test: Effect to prevent infections in mice, Test Example 6; type: in vivo, ICR strain male mice; details: mouse, i.p. infection 9.5 × 10^6 CFU/mouse with mucin; s.c. one hour after; 7 days
Procedure: (§2) The culture solution of each test bacterium was adjusted to a bacterial concentration shown in the table and then supplemented with 2.5% (W/V) of mucin. The solution was intraperitoneally administered to ICR strain male mice (mean body weight of 20 g, 4 weeks old) of one group being 8 at a dose of 0.5 ml to experimentally cause infection. Each test compound was subcutaneously administered one hour after (provided that in case of Pseudomonas aeruginosa was given one hour and 3 hours after). Observation was made for 7 days.

[19] = tested on: Escherichia coli No. 29; test: as above; type: in vivo, ICR strain male mice; details: mouse, i.p. infection 2.3 × 10^5 CFU/mouse with mucin; s.c. one hour after; 7 days
Procedure: as §2

[20] = tested on: Klebsiella pneumoniae PCI 602; test: as above; type: in vivo, ICR strain male mice; details: mouse, i.p. infection 6.5 × 10^4 CFU/mouse with mucin; s.c. one hour after; 7 days
Procedure: as §2

[21] = tested on: Pseudomonas aeruginosa GN10362; test: as above; type: in vivo, ICR strain male mice; details: mouse, i.p. infection 8.8 × 10^5 CFU/mouse with mucin; s.c. one hour and 3 hours after; 7 days
Procedure: as §2

[22] = Acute toxicity test, Test Example 5; type: in vivo; details: mouse, in vivo, iv; ICR male mice, tail vein; 14 days
Procedure: (§3) 75 mg of each test compound was dissolved in 0.4 ml of phuysiological saline. The solution was administered to the tail vein of ICR strain male mice (mean body weight of 25 g, 5 weeks old) of one group being 3 mice. Observation was made for 14 days.

[23] = tested on: ICR strain male mice; test: Acute toxicity test, Test Example 5; type: in vivo; details: for survival: ICR male mice, 75 mg in 0.4 ml, tail vein, 14 days
Procedure: as §3

[24] = tested on: clinically isolated Klebsiella pneumoniae, Proteus vulgaris and Pseudomonas aeruginosa; test: Distribution in sensitivity of clinically isolated strains, Test Examples 2 to 4; type: cell-based; details: compared to known compounds
Procedure: Each MIC of various bacteria clinically isolated from patients was measured in a manner similar to Test Example 1 and its percentage to the all strains to reach the inhibitory concentration was accumulatively expressed .
Distribution in sensitivity to pneumobacilli clinically isolated.
Distribution in sensitivity to variant clinically isolated.
Distribution in sensitivity to Pseudomonas aeruginosa clinically isolated.

[25] = Concentration in blood plasma (rat) and in serum (common marmoset), Test Examples 7 and 8; type: in vivo, SD strain male rats; female common marmosets; details: various animal tests
Procedure: A test compound was dissolved in physiological saline in a concentration of 20 mg/ml. The solution was given in the tail vein of SD strain male rats (mean body weight of 325 g) of one group being 4 in a dose of 1 ml/kg. Blood was collected from the femoral artery in course of time and blood plasma was isolated from the blood. A concentration of the test compound in blood plasma was quantitatively assayed by high performance liquid chromatography. A test compound was dissolved in 0.05M phosphate buffer (pH 6.5) in a concentration of 2.0 mg/ml. The solution was intramuscularly administered to female common marmosets of one group being 2 in a dose of 5 ml/kg. Blood was collected from the femoral artery with passage of time and serum was separated from the blood followed by quantitative assay by bioassay using Escherichia coli K-12 HW 8236 as a bacterium for the assay.

[26] = tested on: Escherichia coli, pneumobacilli and Pseudomons aeruginosa; test: Effect to prevent infections, overall comparison with known compounds, Test Example 6; type: in vivo, ICR strain male mice; details: compared to the known compounds (CAZ, HR-810)
Procedure: as §2

[27] = Citrobacter freundii, GN346, read-out: Minimum Growth Inhibitory Concentration MIC
[28] = Bacillus subtilis ATCC6633, 10^6 CFU/ml, medium SDA, read-out: Minimum Growth Inhibitory Concentration MIC
[29] = Citrobacter freundii GN346/16, 10^6 CFU/ml, medium SDA, read-out: Minimum Growth Inhibitory Concentration MIC
[30] = Citrobacter freundii GN346, 10^6 CFU/ml, medium SDA, read-out: Minimum Growth Inhibitory Concentration MIC
[31] = IAM1007, Pseudomonas aeruginosa IAM-1007, 10^6 CFU/ml, medium SDA, read-out: Minimum Growth Inhibitory Concentration MIC
[32] = M0148, Pseudomonas aeruginosa M-0148, 10^6 CFU/ml, medium SDA, read-out: Minimum Growth Inhibitory Concentration MIC
[33] = Staphylococcus aureus Smith (I), 10^6 CFU/ml, medium SDA
[34] = ATCC14990, Staphylococcus epidermidis ATCC 14990, 10^6 CFU/ml, medium SDA, read-out: Minimum Growth Inhibitory Concentration MIC
[35] = Escherichia coli GN206, Table 1, 10^6 CFU/ml, medium SDA, read-out: Minimum Growth Inhibitory Concentration MIC
[36] = Klebsiella pneumoniae PCI 602, Table 2, read-out: MIC

| SMILES | MIC [5] [µg/mL] | MIC [6] [µg/mL] | MIC [7] [µg/mL] | MIC [8] [µg/mL] | MIC [11] [µg/mL] | MIC [15] [µg/mL] | ED50 (preventive effect) [18] [mg/mouse] | ED50 (preventive effect) [19] [mg/mouse] | ED50 (preventive effect) [20] [mg/mouse] | ED50 (preventive effect) [21] [mg/mouse] | LD50 at 336 h [22] [mg/kg] | survival [23] | MIC [1, 28] [µg/mL] | MIC [3, 29] [µg/mL] | MIC [4, 30] [µg/mL] | MIC [9, 31] [µg/mL] | MIC [10, 32] [µg/mL] | MIC [12, 33] [µg/mL] | MIC [13, 34] [µg/mL] | MIC [14, 35] [µg/mL] | further results |
| --- | --- | --- | --- | --- | --- | --- | --- | --- | --- | --- | --- | --- | --- | --- | --- | --- | --- | --- | --- | --- | --- |
| CC(C)(ON=C(C(=O)NC1C(=O)N2C(C(=O)[O-])=C(C[n+]3ccccc3)CSC12)c1csc(N)n1)C(=O)O [CAZ, (6R, 7R)-7-[(Z)-2-(2-aminothiazol-4-yl)-2-(2-methylcarboxyisoprop;oxyimino)acetamido]-3-pyridinium-1-ylmethyl-ceph-3-em-4-carboxylate] | 0.39 (≈ 0.714 µM) | 12.5 (≈ 22.9 µM) | 0.2 (≈ 0.366 µM) | 0.2 (≈ 0.366 µM) | 0.78 (≈ 1.43 µM) | 0.2 | 1.0 | 0.006 | 0.57 | 8 | ≥ 4000 | survived |  |  |  |  |  |  |  |  | MIC ([1]; Bacillus subtilis, ATCC6633, read-out: Minimum Growth Inhibitory Concentration MIC): 3.13 µg/mL (≈ 5.73 µM); MIC [2]: 25 µg/mL (≈ 45.7 µM); MIC [3, 27]: 0.78 µg/mL (≈ 1.43 µM); MIC [4, 27]: 25 µg/mL (≈ 45.7 µM); MIC ([9]; Pseudomonas aeruginosa, IAM1007, read-out: Minimum Growth Inhibitory Concentration MIC): 0.78 µg/mL (≈ 1.43 µM); MIC ([10]; Pseudomonas aeruginosa, M0148, read-out: Minimum Growth Inhibitory Concentration MIC): 1.56 µg/mL (≈ 2.85 µM); MIC ([12]; Staphylococcus aureus): 3.13 µg/mL (≈ 5.73 µM); MIC ([13]; Staphylococcus epidermidis, ATCC14990, read-out: Minimum Growth Inhibitory Concentration MIC): 3.13 µg/mL (≈ 5.73 µM); MIC ([14]; Escherichia coli, GN206): 1.56 µg/mL (≈ 2.85 µM); MIC ([14]; Escherichia coli, GN206, read-out: Minimum Growth Inhibitory Concentration MIC): 1.56 µg/mL (≈ 2.85 µM); MIC ([16]; Klebsiella pneumoniae): 0.2 µg/mL; MIC ([17]; Pseudomonas aeruginosa, GN10362): 1.56 µg/mL |
| CC[n+]1ccc(SCC2=C(C(=O)[O-])N3C(=O)[C@@H](NC(=O)/C(=N\O[C@@H](C)C(=O)O)c4csc(N)n4)[C@H]3SC2)cc1 [Compound I, (6R, 7R)-7-[(Z)-2-(2-aminothiazol-4-yl)-2-{(1S)-carboxyethoxyimino}acetamido]-3-(1-ethylpyridinium-4-ylthiomethyl)-ceph-3-em-4-carboxylate monosodium salt] | 0.1 | 0.2 | 0.2 | 0.05 | 0.78 | 0.1 | 0.36 | 0.002 | 0.33 | 4.5 | ≥ 4000 | survived | 3.13 | 0.39 | 6.25 | 0.78 | 0.78 | 1.56 | 3.13 | 0.1 | MIC ([14]; Escherichia coli GN206, Table 2, read-out: MIC): 0.2 µg/mL; MIC [16, 36]: 0.05 µg/mL; MIC ([17]; Pseudomonas aeruginosa GN10362, Table 2, read-out: MIC): 1.56 µg/mL; toxicity (in words) ([23]; various animal tests): low toxicity; distribution in sensitivity to clinically isolated strains (in words) [24]: much more excellent antibacterial activity over a wide range; durability in a concentration to exhibit the antibacterial activity (in words) [25]: sufficient durability in a concentration to exhibit the antibacterial activity; transfer into blood and organ (in words) [25]: rapidly transferred into blood and organ; effect to prevent infections compared to the known compounds (in words) [26]: equal to or superior to them |
| CON=C(C(=O)NC1C(=O)N2C(C(=O)[O-])=C(C[n+]3cccc4c3CCC4)CSC12)c1csc(N)n1 [HR-810, (6R, 7R)-7-[(Z)-2-(2-aminothiazol-4-yl)-2-(methoxyimino)acetamido]-3-cyclopentenopyridinium-1-ylmethyl-ceph-3-em-4-carboxylate] | 0.05 (≈ 0.0972 µM) | 0.2 (≈ 0.389 µM) | 0.78 (≈ 1.52 µM) | 0.1 (≈ 0.194 µM) | 3.13 (≈ 6.08 µM) | 0.05 |  | 0.006 | 1.3 |  | ≥ 4000 | survived | 0.1 (≈ 0.194 µM) | 0.05 (≈ 0.0972 µM) | 0.78 (≈ 1.52 µM) | 12.5 (≈ 24.3 µM) | 12.5 (≈ 24.3 µM) | 0.39 (≈ 0.758 µM) | 0.39 (≈ 0.758 µM) | < 0.025 | MIC [16, 36]: 0.05 µg/mL |
